According to the supplement of paper PMC13380429:

Assays:
Details in all cases: 72 h
Caco-2 [1] = experiment: cell viability relative to DMSO; higher = less toxic
Calu-3 [2] = experiment: as above
HepG2 [3] = experiment: as above
U2OS [4] = experiment: as above
Caco-2 [5] = experiment: relative viability EC50 (midpoint between 100% and the lowest measured viability); higher = less toxic
Calu-3 [6] = experiment: as above
HepG2 [7] = experiment: as above
U2OS [8] = experiment: as above
Caco-2 [9] = experiment: drug sensitivity score (DSS) for viability; higher = more toxic; extreme values may be limits of the assay
Calu-3 [10] = experiment: as above
HepG2 [11] = experiment: as above
U2OS [12] = experiment: as above
Vero E6 [13] = experiment: cell viability relative to DMSO; higher = less toxic
Vero E6 [14] = experiment: relative viability EC50 (midpoint between 100% and the lowest measured viability); higher = less toxic
Vero E6 [15] = experiment: drug sensitivity score (DSS) for viability; higher = more toxic; extreme values may be limits of the assay

Compound	cell viability (Caco-2 [1]; 1 nM)	cell viability (Caco-2 [1]; 10 nM)	cell viability (Caco-2 [1]; 100 nM)	cell viability (Caco-2 [1]; 1000 nM)	cell viability (Caco-2 [1]; 10000 nM)	cell viability (Calu-3 [2]; 1 nM)	cell viability (Calu-3 [2]; 10 nM)	cell viability (Calu-3 [2]; 100 nM)	cell viability (Calu-3 [2]; 1000 nM)	cell viability (Calu-3 [2]; 10000 nM)	cell viability (HepG2 [3]; 1 nM)	cell viability (HepG2 [3]; 10 nM)	cell viability (HepG2 [3]; 100 nM)	cell viability (HepG2 [3]; 1000 nM)	cell viability (HepG2 [3]; 10000 nM)	cell viability (U2OS [4]; 1 nM)	cell viability (U2OS [4]; 10 nM)	cell viability (U2OS [4]; 100 nM)	cell viability (U2OS [4]; 1000 nM)	cell viability (U2OS [4]; 10000 nM)	relative viability EC50 (Caco-2 [5])	relative viability EC50 (Calu-3 [6])	relative viability EC50 (HepG2 [7])	relative viability EC50 (U2OS [8])	drug sensitivity score (Caco-2 [9])	drug sensitivity score (Calu-3 [10])	drug sensitivity score (HepG2 [11])	drug sensitivity score (U2OS [12])	cell viability (Vero E6 [13]; 1 nM)	cell viability (Vero E6 [13]; 10 nM)	cell viability (Vero E6 [13]; 100 nM)	cell viability (Vero E6 [13]; 1000 nM)	cell viability (Vero E6 [13]; 10000 nM)	relative viability EC50 (Vero E6 [14])	drug sensitivity score (Vero E6 [15])
Cc1ccc(N(CC2=NCCN2)c2cccc(O)c2)cc1 [phentolamine]	99%	98.8%	109%	97.4%	91.1%	99.8%	103%	105%	93.5%	106%	96.8%	96.5%	106%	106%	104%	99.3%	100%	94.7%	101%	97.3%	> 10 µM	> 10 µM	> 10 µM	> 10 µM	0	0	0	0							
Cc1nc[nH]c1CCN [4-methylhistamine]	91.9%	95.1%	99.2%	100%	101%	89.5%	101%	107%	88%	99.2%	98.1%	98.6%	88.5%	96.2%	91.9%	95.1%	99.5%	104%	98%	104%	> 10 µM	> 10 µM	> 10 µM	> 10 µM	0	0	0	0							
CN(C)/N=N/c1[nH]cnc1C(N)=O [dacarbazine]	100%	97.8%	97%	103%	93.4%	91.9%	102%	95.9%	110%	95.7%	106%	90.7%	99.2%	90.5%	72.7%	97.7%	99.2%	94.9%	102%	92.7%	> 10 µM	> 10 µM		> 10 µM	0	0	2.3	0	98.6%	94.2%	94.4%	97.2%	100%	> 10 µM	0
Cc1ccc2c(=O)c3cccc(CC(=O)O)c3oc2c1C [ASA-404]	94.6%	98.6%	99%	96%	93.3%	98%	86.7%	105%	99.4%	102%						100%	97.4%	101%	99.7%	103%	> 10 µM	> 10 µM		> 10 µM	0	0		0	102%	106%	102%	108%	97.6%	> 10 µM	0
C/C(=C\C(N)C(=O)O)CP(=O)(O)O (configuration not stated)	102%	110%	97.5%	90%	101%	95.9%	98.3%	104%	96.2%	101%						101%	96.3%	97%	97.1%	104%	> 10 µM	> 10 µM		> 10 µM	0	0		0							
O=C1Nc2ccccc2C2(CCN(CCc3ccc(C(F)(F)F)cc3)CC2)O1	93.3%	97.2%	94.7%	99.2%	78.6%	99.7%	98.7%	102%	108%	82.4%	97.7%	96.2%	88.8%	100%	58.1%	100%	94.9%	99.8%	94.7%	91.2%	> 10 µM	> 10 µM		> 10 µM	0.8	0.2	2.1	0	95.6%	99%	97.2%	96.3%	93.5%	> 10 µM	0
CCCC(C)C1(CC)C(=O)NC(=O)NC1=O (configuration not stated) [pentobarbital]	94.8%	90.8%	88.3%	89.1%	93.9%	106%	90.3%	109%	107%	94.1%						104%	97.1%	99.7%	93.9%	99.1%	> 10 µM	> 10 µM		> 10 µM	0.8	0		0	102%	94.4%	96.5%	106%	100%	> 10 µM	0
Nc1sc2c(c1C(=O)c1ccc(Cl)cc1)CCCC2 [T-62]	93.7%	99.3%	88.8%	92.4%	90.8%						105%	98%	103%	101%	107%	98.5%	101%	100%	101%	98%	> 10 µM		> 10 µM	> 10 µM	0		0	0							
CC(=O)SC[C@@H](C)C(=O)N1CCC[C@H]1C(=O)N[C@@H](Cc1ccccc1)C(=O)O [alacepril]	102%	101%	94.7%	108%	104%	106%	108%	96.9%	103%	99.4%											> 10 µM	> 10 µM			0	0			98.3%	101%	93%	98.8%	99.4%	> 10 µM	0
N#C/C(=C\c1ccc(O)cc1)C(=O)O [CHC]	108%	98.5%	102%	87.6%	102%						106%	99%	102%	98%	98.8%	101%	93.4%	97.6%	98.6%	99.7%	> 10 µM		> 10 µM	> 10 µM	0		0	0							
COc1ccc(-c2cc(=S)ss2)cc1 [anethole-trithione]	99.3%	96.5%	100%	91.9%	92.2%	97.1%	95.9%	111%	108%	97.3%						100%	98.9%	99.8%	97.6%	103%	> 10 µM	> 10 µM		> 10 µM	0	0		0	107%	105%	95.9%	102%	106%	> 10 µM	0
Oc1ccc([C@@H]2Oc3ccc(O)cc3[C@@H]3CCC[C@@H]32)cc1 [erteberel]	95.4%	94.4%	96.7%	92.8%	86.8%	108%	109%	108%	98.3%	102%	102%	101%	97.6%	108%	52.4%	97.5%	95.6%	102%	98.9%	82.9%	> 10 µM	> 10 µM		> 10 µM	0	0	2	0.5	94.8%	99%	92.5%	99.4%	87.8%	> 10 µM	0
CCC1(c2ccc(N)cc2)CCC(=O)NC1=O (configuration not stated) [aminoglutethimide]	109%	97.2%	105%	112%	111%	112%	95.6%	103%	93.2%	102%	90.7%	96%	85.3%	77.2%	71.8%	102%	105%	105%	101%	98.6%	> 10 µM	> 10 µM		> 10 µM	0	0	4.8	0	97.6%	101%	91.3%	86.9%	100%	> 10 µM	0
Nc1nc(-c2nn(Cc3ccccc3F)c3ncccc23)ncc1C1CC1 [BAY-41-2272]	86.5%	90.5%	94.1%	100%	93.8%	100%	108%	91.7%	104%	110%	95.8%	103%	95.8%	104%	69.2%	90%	96.6%	93.9%	101%	105%	> 10 µM	> 10 µM		> 10 µM	0	0	1.1	0	102%	96.1%	97.3%	86%	66.7%		2.9
COC(=O)[C@H](CC(C)C)NC(=O)[C@@H](N)CC(C)C [leucylleucine-methyl-ester]	98.1%	102%	94.5%	104%	103%	98.1%	107%	86.9%	99.6%	98.5%											> 10 µM	> 10 µM			0	0									
COc1ccc(C(=O)c2ccccc2)c(O)c1 [oxybenzone]	99.6%	94.4%	98.9%	101%	97.8%						112%	112%	98.9%	114%	103%	103%	103%	101%	98.2%	100%	> 10 µM		> 10 µM	> 10 µM	0		0	0							
C=C[C@]1(C)C[C@@H](OC(=O)CS[C@@H]2C[C@H]3CC[C@@H](C2)N3C)[C@]2(C)[C@H](C)CC[C@]3(CCC(=O)[C@H]32)[C@@H](C)[C@@H]1O [retapamulin]	94.7%	98.2%	112%	92.8%	98.8%	107%	98.5%	104%	98.2%	97.8%	96.9%	101%	89.4%	85.9%	74%	103%	98.4%	102%	101%	99.1%	> 10 µM	> 10 µM		> 10 µM	0	0	2.6	0	94.9%	101%	90.4%	93.9%	91.5%	> 10 µM	0
